In the supplement of paper PMC10883282:
± gives the standard deviation of the averaged measurements.

Columns and labels:
Experiment in all cases: relative viability vs DMSO control (72 h) (fraction); higher = more viable cells
G401 = system: G401
Method in brief: (§1)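 Relative viability is percent growth read by ATPLite and averaged over up to triplicate wells. Sarcoma cells were seeded in 384-well plates to reach 80–90% confluence and given 2.5 µl of serially diluted compound after 24 h, from source plates of 10 mM to 0.0002 mM. Incubation lasted 72 h at 37 °C, 5% CO2, with 0.1% DMSO vehicle and a 5 µM positive control, and the data were rescaled so 1 equals full and 0 equals none.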

HS729 = system: HS729
Method in brief: as §1

HT1080 = system: HT1080
Method in brief: as §1

KHOS-240S = system: KHOS-240S
Method in brief: as §1

KHOS-NP = system: KHOS-NP
Method in brief: as §1

RD-ES = system: RD-ES
Method in brief: as §1

RD = system: RD
Method in brief: as §1

SK-LMS-1 = system: SK-LMS-1
Method in brief: as §1

SW1353 = system: SW1353
Method in brief: as §1

SW684 = system: SW684
Method in brief: as §1

SW872 = system: SW872
Method in brief: as §1

SYO-1 = system: SYO-1
Method in brief: as §1

CCC(=O)N1CC[C@H](Nc2ncnc3c2CN(c2cnc(OC)c(C(F)(F)F)c2)CC3)C1 [Leniolisib]
Conditions | relative viability
G401, 0.00017 µM | 1.02 ± 0.071
G401, 0.00051 µM | 1 ± 0.018
G401, 0.00152 µM | 1.01 ± 0.033
G401, 0.00457 µM | 1.01 ± 0.03
G401, 0.01372 µM | 1.02 ± 0.044
G401, 0.04115 µM | 0.973 ± 0.029
G401, 0.1235 µM | 0.947 ± 0.013
G401, 0.3704 µM | 0.936 ± 0.019
G401, 1.111 µM | 0.868 ± 0.047
G401, 3.333 µM | 0.835 ± 0.028
G401, 10 µM | 0.689 ± 0.029
HS729, 0.00017 µM | 1.07 ± 0.04
HS729, 0.00051 µM | 1.02 ± 0.052
HS729, 0.00152 µM | 0.964 ± 0.019
HS729, 0.00457 µM | 0.982 ± 0.062
HS729, 0.01372 µM | 0.965 ± 0.034
HS729, 0.04115 µM | 0.95 ± 0.033
HS729, 0.1235 µM | 0.947 ± 0.04
HS729, 0.3704 µM | 0.992 ± 0.022
HS729, 1.111 µM | 0.838 ± 0.052
HS729, 3.333 µM | 0.82 ± 0.047
HS729, 10 µM | 0.675 ± 0.012
HT1080, 0.00017 µM | 1.09 ± 0.013
HT1080, 0.00051 µM | 1.077 ± 0.0024
HT1080, 0.00152 µM | 1.1 ± 0.01
HT1080, 0.00457 µM | 1.09 ± 0.024
HT1080, 0.01372 µM | 1.05 ± 0.031
HT1080, 0.04115 µM | 1.038 ± 0.0062
HT1080, 0.1235 µM | 1.05 ± 0.028
HT1080, 0.3704 µM | 1.04 ± 0.011
HT1080, 1.111 µM | 1.03 ± 0.026
HT1080, 3.333 µM | 1.04 ± 0.043
HT1080, 10 µM | 0.94 ± 0.033
KHOS-240S, 0.00017 µM | 1.03 ± 0.017
KHOS-240S, 0.00051 µM | 1.05 ± 0.023
KHOS-240S, 0.00152 µM | 1.05 ± 0.04
KHOS-240S, 0.00457 µM | 1.06 ± 0.056
KHOS-240S, 0.01372 µM | 1.05 ± 0.045
KHOS-240S, 0.04115 µM | 1.02 ± 0.019
KHOS-240S, 0.1235 µM | 1.017 ± 0.0085
KHOS-240S, 0.3704 µM | 0.997 ± 0.021
KHOS-240S, 1.111 µM | 0.975 ± 0.028
KHOS-240S, 3.333 µM | 0.9 ± 0.045
KHOS-240S, 10 µM | 0.8026 ± 0.0076
KHOS-NP, 0.00017 µM | 1.11 ± 0.017
KHOS-NP, 0.00051 µM | 1.11 ± 0.022
KHOS-NP, 0.00152 µM | 1.09 ± 0.012
KHOS-NP, 0.00457 µM | 1.101 ± 0.009
KHOS-NP, 0.01372 µM | 1.08 ± 0.014
KHOS-NP, 0.04115 µM | 1.07 ± 0.02
KHOS-NP, 0.1235 µM | 1.07 ± 0.013
KHOS-NP, 0.3704 µM | 1.061 ± 0.0038
KHOS-NP, 1.111 µM | 1.05 ± 0.024
KHOS-NP, 3.333 µM | 1.05 ± 0.026
KHOS-NP, 10 µM | 0.96 ± 0.016
RD, 0.00017 µM | 1.08 ± 0.06
RD, 0.00051 µM | 1.09 ± 0.018
RD, 0.00152 µM | 1.11 ± 0.014
RD, 0.00457 µM | 1.11 ± 0.029
RD, 0.01372 µM | 1.12 ± 0.034
RD, 0.04115 µM | 1.09 ± 0.015
RD, 0.1235 µM | 1.09 ± 0.028
RD, 0.3704 µM | 1.11 ± 0.026
RD, 1.111 µM | 1.09 ± 0.032
RD, 3.333 µM | 1.05 ± 0.034
RD, 10 µM | 0.886 ± 0.015
RD-ES, 0.00017 µM | 0.985 ± 0.038
RD-ES, 0.00051 µM | 1.034 ± 0.0094
RD-ES, 0.00152 µM | 1.03 ± 0.022
RD-ES, 0.00457 µM | 1.03 ± 0.029
RD-ES, 0.01372 µM | 1 ± 0.021
RD-ES, 0.04115 µM | 1.02 ± 0.0046
RD-ES, 0.1235 µM | 0.989 ± 0.029
RD-ES, 0.3704 µM | 0.958 ± 0.013
RD-ES, 1.111 µM | 0.908 ± 0.014
RD-ES, 3.333 µM | 0.856 ± 0.022
RD-ES, 10 µM | 0.709 ± 0.03
SK-LMS-1, 0.00017 µM | 1.11 ± 0.04
SK-LMS-1, 0.00051 µM | 1.07 ± 0.031
SK-LMS-1, 0.00152 µM | 1.1 ± 0.04
SK-LMS-1, 0.00457 µM | 1.08 ± 0.023
SK-LMS-1, 0.01372 µM | 1.05 ± 0.055
SK-LMS-1, 0.04115 µM | 1.04 ± 0.034
SK-LMS-1, 0.1235 µM | 1.06 ± 0.04
SK-LMS-1, 0.3704 µM | 0.998 ± 0.056
SK-LMS-1, 1.111 µM | 0.939 ± 0.011
SK-LMS-1, 3.333 µM | 0.827 ± 0.028
SK-LMS-1, 10 µM | 0.712 ± 0.035
SW684, 0.00017 µM | 1.091 ± 0.01
SW684, 0.00051 µM | 1.14 ± 0.028
SW684, 0.00152 µM | 1.14 ± 0.052
SW684, 0.00457 µM | 1.14 ± 0.049
SW684, 0.01372 µM | 1.15 ± 0.029
SW684, 0.04115 µM | 1.03 ± 0.03
SW684, 0.1235 µM | 0.912 ± 0.014
SW684, 0.3704 µM | 0.793 ± 0.025
SW684, 1.111 µM | 0.742 ± 0.031
SW684, 3.333 µM | 0.674 ± 0.011
SW684, 10 µM | 0.548 ± 0.02
SW872, 0.00017 µM | 1.1 ± 0.018
SW872, 0.00051 µM | 1.09 ± 0.029
SW872, 0.00152 µM | 1.07 ± 0.016
SW872, 0.00457 µM | 1.06 ± 0.023
SW872, 0.01372 µM | 1.06 ± 0.011
SW872, 0.04115 µM | 1.03 ± 0.03
SW872, 0.1235 µM | 1.03 ± 0.013
SW872, 0.3704 µM | 1.03 ± 0.041
SW872, 1.111 µM | 0.951 ± 0.033
SW872, 3.333 µM | 0.907 ± 0.035
SW872, 10 µM | 0.688 ± 0.008
SW1353, 0.00017 µM | 1.02 ± 0.025
SW1353, 0.00051 µM | 1.04 ± 0.031
SW1353, 0.00152 µM | 0.985 ± 0.024
SW1353, 0.00457 µM | 0.999 ± 0.024
SW1353, 0.01372 µM | 0.97 ± 0.011
SW1353, 0.04115 µM | 0.9439 ± 0.0084
SW1353, 0.1235 µM | 0.953 ± 0.043
SW1353, 0.3704 µM | 0.931 ± 0.013
SW1353, 1.111 µM | 0.885 ± 0.016
SW1353, 3.333 µM | 0.826 ± 0.011
SW1353, 10 µM | 0.692 ± 0.0091
SYO-1, 0.00017 µM | 1.03 ± 0.022
SYO-1, 0.00051 µM | 0.999 ± 0.04
SYO-1, 0.00152 µM | 0.984 ± 0.02
SYO-1, 0.00457 µM | 0.965 ± 0.062
SYO-1, 0.01372 µM | 0.947 ± 0.024
SYO-1, 0.04115 µM | 0.949 ± 0.038
SYO-1, 0.1235 µM | 0.933 ± 0.066
SYO-1, 0.3704 µM | 0.886 ± 0.037
SYO-1, 1.111 µM | 0.875 ± 0.039
SYO-1, 3.333 µM | 0.816 ± 0.071
SYO-1, 10 µM | 0.724 ± 0.037
